Key:
Format in all cases: in vivo
[1] = system: velvetleaf (Abutilon theophrasti, ABUTH); assay: Pre-emerge test, greenhouse herbicide activity screening; conditions: pre-emerge, phytotoxicity rating 0-100 at 14 days after application
Source text: (§1) A standard greenhouse herbicide activity screening system was used to evaluate the herbicidal efficacy and crop safety of these test compounds. Seven broadleaf weed species including redroot pigweed (Amaranthus retroflexus, AMARE, velvetleaf (Abutilon theophrasti, ABUTH), sicklepod (Cassia obtusifolia, CASOB), ivyleaf morningglory (Ipomoea hederacea, IPOHE), lambsquarters (Chenopodium album, CHEAL), common ragweed (Ambrosia artemisizfolia L., AMBEL), and cocklebur (Xanthium strumarium, XANST) were used as test species. Four grass weed species including green foxtail (Setaria viridis, SETVI), barnyardgrass (Echinochloa crus-galli, ECHCG), johnsongrass (Sorghum halepense, SORHA), and large crabgrass (Digitaria sanguinalis, DIGSA) were also used. In addition, three crop species, field corn (Zea mays L., var. Dekalb 535, CORN), soybean (Glycine max L., var. Pella 86, SOY), and is upland rice (Oryza sp., var. Tebonnet, RICE) were included.
(§2) All plants were grown in 10 cm square plastic pots which were filled with a sandy loam soil mix. For pre-emerge tests, seeds were planted one day prior to application of the test compounds. For post-emerge tests, seeds were planted 8-21 days prior to the test to allow emergence and good foliage development prior to application of the test substances. At the time of the post-emerge application, plants of all species were usually at the 2-3 leaf stage of development.
(§3) All test compounds Were dissolved in acetone and applied to the test units in a volume of 187 l /ha. Test materials were applied at rates ranging from 15 g ai/ha to 1000 g ai/ha using a track sprayer equipped with a TJ8001E even flow flat fan spray nozzle. Plants were arranged on a shelf so that the top of the canopy (post-emerge) or top of the soil surface (pre-emerge) was 40-45 cm below the nozzle. Pressurized air was used to force the test solution through the nozzle as it was mechanically advanced (via electrically driven chain drive) over the top of all test plants/pots. This application simulates a typical commercial field herbicide application.
(§4) In the post-emerge test, a commercial non-ionic surfactant was also included (0.25% v/v) to enhance wetting of the leaf surfaces of target plants. Immediately after application, test units of the pre-emerge applications were watered at the soil surface to incorporate the test materials. Subsequently, these test units were bottom-watered. Post-emerge test units were always bottom-watered.
(§5) At 14 days after application of the test materials, phytotoxicity ratings were recorded. A rating scale of 0-100 was used as previously described in Research Methods in Weed Science, 2nd edition, B. Truelove, Ed., Southern Weed Science Society, Auburn University, Auburn, Ala. 1977. Briefly, “0” corresponds to no damage and “100” corresponds to complete death of all plants in the test unit. This scale was used both to determine efficacy against weed species and damage to crop species. Herbicide activity data for various compounds of this invention, which are shown by compound No. in Tables 1-8, are shown in Tables 11 and 12.

[2] = system: lambsquarters (Chenopodium album, CHEAL); assay: as above; conditions: pre-emerge, phytotoxicity rating 0-100 at 14 days after application
Source text: as §1, §2, §3, §4, §5

[3] = system: barnyardgrass (Echinochloa crus-galli, ECHCG); assay: as above; conditions: pre-emerge, phytotoxicity rating 0-100 at 14 days after application
Source text: as §1, §2, §3, §4, §5

[4] = system: ivyleaf morningglory (Ipomoea hederacea, IPOHE); assay: as above; conditions: pre-emerge, phytotoxicity rating 0-100 at 14 days after application
Source text: as §1, §2, §3, §4, §5

[5] = system: green foxtail (Setaria viridis, SETVI); assay: as above; conditions: pre-emerge, phytotoxicity rating 0-100 at 14 days after application
Source text: as §1, §2, §3, §4, §5

[6] = system: large crabgrass (Digitaria sanguinalis, DIGSA); assay: as above; conditions: pre-emerge, phytotoxicity rating 0-100 at 14 days after application
Source text: as §1, §2, §3, §4, §5

[7] = system: sicklepod (Cassia obtusifolia, CASOB); assay: as above; conditions: pre-emerge, phytotoxicity rating 0-100 at 14 days after application
Source text: as §1, §2, §3, §4, §5

[8] = system: upland rice (Oryza sp., var. Tebonnet, RICE); assay: Post-emerge test, crop safety; conditions: post-emerge, crop damage rating 0-100 at 14 days after application
Source text: as §1, §2, §3, §4, §5

[9] = system: field corn (Zea mays L., var. Dekalb 535, CORN); assay: Post-emerge test, crop safety; conditions: post-emerge, crop damage rating 0-100 at 14 days after application
Source text: as §1, §2, §3, §4, §5

[10] = system: upland rice (Oryza sp., var. Tebonnet, RICE); assay: Pre-emerge test, crop safety; conditions: crop damage, pre-emerge, phytotoxicity rating 0-100 at 14 days after application
Source text: as §1, §2, §3, §4, §5

[11] = system: field corn (Zea mays L., var. Dekalb 535, CORN); assay: Pre-emerge test, crop safety; conditions: crop damage, pre-emerge, phytotoxicity rating 0-100 at 14 days after application
Source text: as §1, §2, §3, §4, §5

[12] = system: redroot pigweed (Amaranthus retroflexus, AMARE); assay: Pre-emerge test, greenhouse herbicide activity screening; conditions: pre-emerge, phytotoxicity rating 0-100 at 14 days after application
Source text: as §1, §2
as §3, with “Test materials were applied at rates ranging from 15 g ai/ha to 1000 g ai/ha using a track sprayer equipped with a TJ8001E even flow flat fan spray nozzle.” left out
as §4, §5

[13] = system: velvetleaf (Abutilon theophrasti, ABUTH); assay: Post-emerge test, greenhouse herbicide activity screening; conditions: post-emerge, phytotoxicity rating 0-100 at 14 days after application
Source text: as §1, §2, §3, §4, §5

[14] = system: lambsquarters (Chenopodium album, CHEAL); assay: as above; conditions: post-emerge, phytotoxicity rating 0-100 at 14 days after application
Source text: as §1, §2, §3, §4, §5

[15] = system: barnyardgrass (Echinochloa crus-galli, ECHCG); assay: as above; conditions: post-emerge, phytotoxicity rating 0-100 at 14 days after application
Source text: as §1, §2, §3, §4, §5

[16] = system: redroot pigweed (Amaranthus retroflexus, AMARE); assay: as above; conditions: post-emerge, phytotoxicity rating 0-100 at 14 days after application
Source text: as §1, §2, §3, §4, §5

[17] = system: ivyleaf morningglory (Ipomoea hederacea, IPOHE); assay: as above; conditions: post-emerge, phytotoxicity rating 0-100 at 14 days after application
Source text: as §1, §2, §3, §4, §5

[18] = system: green foxtail (Setaria viridis, SETVI); assay: as above; conditions: post-emerge, phytotoxicity rating 0-100 at 14 days after application
Source text: as §1, §2, §3, §4, §5

[19] = system: large crabgrass (Digitaria sanguinalis, DIGSA); assay: as above; conditions: post-emerge, phytotoxicity rating 0-100 at 14 days after application
Source text: as §1, §2, §3, §4, §5

[20] = system: sicklepod (Cassia obtusifolia, CASOB); assay: as above; conditions: post-emerge, phytotoxicity rating 0-100 at 14 days after application
Source text: as §1, §2, §3, §4, §5

Cc1cc(C)c(COC(=O)Nc2c(C)c(Cl)cc(F)c2-n2c(=O)cc(C(F)(F)F)n(C)c2=O)c(C)c1 [4-69]
Pre-emerge Herbicidal Activity ABUTH ([1]; rate 63 g ai/ha): 80
Pre-emerge Herbicidal Activity ABUTH ([1]; rate 250 g ai/ha): 90
Pre-emerge Herbicidal Activity CHEAL ([2]; rate 63 g ai/ha): 70
Pre-emerge Herbicidal Activity CHEAL ([2]; rate 250 g ai/ha): 90
Pre-emerge Herbicidal Activity ECHCG ([3]; rate 63 g ai/ha): 30
Pre-emerge Herbicidal Activity ECHCG ([3]; rate 250 g ai/ha): 70
Pre-emerge Herbicidal Activity IPOHE ([4]; rate 63 g ai/ha): 0
Pre-emerge Herbicidal Activity IPOHE ([4]; rate 250 g ai/ha): 40
Pre-emerge Herbicidal Activity SETVI ([5]; rate 63 g ai/ha): 95
Pre-emerge Herbicidal Activity SETVI ([5]; rate 250 g ai/ha): 100
Pre-emerge Herbicidal Activity DIGSA ([6]; rate 63 g ai/ha): 100
Pre-emerge Herbicidal Activity DIGSA ([6]; rate 250 g ai/ha): 100
Pre-emerge Herbicidal Activity CASOB ([7]; rate 63 g ai/ha): 0
Pre-emerge Herbicidal Activity CASOB ([7]; rate 250 g ai/ha): 50
Post-emerge Herbicidal Activity RICE ([8]; 63 g ai/ha): 0
Post-emerge Herbicidal Activity RICE ([8]; 250 g ai/ha): 40
Post-emerge Herbicidal Activity CORN ([9]; 63 g ai/ha): 5
Post-emerge Herbicidal Activity CORN ([9]; 250 g ai/ha): 35
Pre-emerge Herbicidal Activity RICE ([10]; rate 63 g ai/ha): 10
Pre-emerge Herbicidal Activity RICE ([10]; rate 250 g ai/ha): 30
Pre-emerge Herbicidal Activity CORN ([11]; rate 63 g ai/ha): 0
Pre-emerge Herbicidal Activity CORN ([11]; rate 250 g ai/ha): 0
Pre-emerge Herbicidal Activity AMARE ([12]; rate 63 g ai/ha): 30
Pre-emerge Herbicidal Activity AMARE ([12]; rate 250 g ai/ha): 80
Post-emerge Herbicidal Activity ABUTH ([13]; 63 g ai/ha): 100
Post-emerge Herbicidal Activity ABUTH ([13]; 250 g ai/ha): 100
Post-emerge Herbicidal Activity CHEAL ([14]; 63 g ai/ha): 90
Post-emerge Herbicidal Activity CHEAL ([14]; 250 g ai/ha): 100
Post-emerge Herbicidal Activity ECHCG ([15]; 63 g ai/ha): 20
Post-emerge Herbicidal Activity ECHCG ([15]; 250 g ai/ha): 40
Post-emerge Herbicidal Activity AMARE ([16]; 63 g ai/ha): 100
Post-emerge Herbicidal Activity AMARE ([16]; 250 g ai/ha): 100
Post-emerge Herbicidal Activity IPOHE ([17]; 63 g ai/ha): 70
Post-emerge Herbicidal Activity IPOHE ([17]; 250 g ai/ha): 100
Post-emerge Herbicidal Activity SETVI ([18]; 63 g ai/ha): 40
Post-emerge Herbicidal Activity SETVI ([18]; 250 g ai/ha): 80
Post-emerge Herbicidal Activity DIGSA ([19]; 63 g ai/ha): 20
Post-emerge Herbicidal Activity DIGSA ([19]; 250 g ai/ha): 50
Post-emerge Herbicidal Activity CASOB ([20]; 63 g ai/ha): 40
Post-emerge Herbicidal Activity CASOB ([20]; 250 g ai/ha): 70

Reference: US6355799B1, “Substituted benzene compounds, process for their preparation, and herbicidal and defoliant compositions containing them” (ISK Americas Incorporated, priority 1997, dated 2002)
